The record followed here is patent US20030144255A1, “Compositions for prevention and treatment of dementia” (priority 2002, published 2003).

For assay [1], the system named is aged rats. The assay is described as follows: Morris water maze learning test in aged rats. The format is in vivo, rat. The note with it: aged male rats of transgenic strain, test started on day 20 of treatment, vs control group. As to the method: (§1) Male (3 to 27 months old) rats of transgenic strain were used. The aged rats were divided into the following four groups.
(§2) 1) Control group: Repeated administration of placebo pill.
(§3) 2) 4,4′-diaminodiphenylsulphone group: Repeated oral administration of 4,4 -diaminodiphenylsulphone 1 mg/kg.
(§4) 3) Cholinesterase inhibitor group: Repeated oral administration of donepezil 0.3 mg/kg.
(§5) 4) Combination group: Repeated oral administration of 4,4′-diaminodiphenylsulphone 3 mg/kg and donepezil 0.3 mg/kg.
(§6) In the combination group, 4,4′-diaminodiphenylsulphone was administered 30 minutes after administration of donepezil.
(§7) Passive avoidance learning test was started on day 14 of treatment, and Morris water maze learning test on day 20 of treatment.
(§8) On each day of experiment, 4,4′-diaminodiphenylsulphone and a cholinesterase inhibitor were administered 30 minutes and 1 hour, respectively, before initiation of the trial.
Same animals used in the passive avoidance test were subjected for the water maze task. However, some rats can not swim well in the water tank, thus they were excluded in the water maze task. The water maze learning test was performed on young rats (saline, 10 animals) and aged rats (control group, 9 animals; 4,4′-diaminodiphenylsulphone group, 9 animals; Compound B group, 8 animals; combination group, 8 animals). […]

Assay [2] concerns aged rats. The assay is described as follows: Passive avoidance learning test in aged rats. The format is in vivo, rat. As to conditions: aged male rats of transgenic strain, test started on day 14 of treatment, vs control group. As to the method: as §1, §2, §3, §4, §5, §6, §7, §8
The passive avoidance learning test was performed using a chamber consisting of light and dark compartments. […]
In each trial, the latency from opening of the slide door until the animal moved to the dark compartment (step-through latency) was measured.

Consider `Nc1ccc(S(=O)(=O)c2ccc(N)cc2)cc1` [4,4′-diaminodiphenylsulphone], for which the “water maze learning deficit (latency to find platform submerged in the water)” value with aged rats [1] (repeated oral 1 mg/kg) is “significant improvement in water maze learning deficit”. For the same compound, the “passive avoidance learning deficit (step-through latency / avoidance time)” value with aged rats [2] (repeated oral 1 mg/kg) is listed as “significant improvement of the learning deficit”.
As to `COc1cc2c(cc1OC)C(=O)C(CC1CCN(Cc3ccccc3)CC1)C2.Cl` (stereo not shown) [donepezil, 2,3-dihydro-5,6-dimethoxy-2-[[1-(phenylmethyl)-4-piperidinyl]methyl]-1H-inden-1-one hydrochloride], in the assay on aged rats [1] (repeated oral 0.3 mg/kg), the “water maze learning deficit (latency to find platform submerged in the water)” value is on record as “significant improvement in water maze learning deficit”. Besides, in the assay with aged rats [2] (repeated oral 0.3 mg/kg), the “passive avoidance learning deficit (step-through latency / avoidance time)” value is on record as “significant improvement of the learning deficit”.
